A word on the IC50: it is the concentration that gives 50% inhibition. Read a high IC50 as weaker potency in that assay.

The structures appear in SMILES notation.

The target in the first assay is T1, PLK1 (Homo sapiens, UniProt P53350).
T1 construct: Full-length, active GST-PLK1 is purified from Sf9 insect cells; made in house; host or cells: Sf9 insect cells
T1 sequence (P53350 whole entry): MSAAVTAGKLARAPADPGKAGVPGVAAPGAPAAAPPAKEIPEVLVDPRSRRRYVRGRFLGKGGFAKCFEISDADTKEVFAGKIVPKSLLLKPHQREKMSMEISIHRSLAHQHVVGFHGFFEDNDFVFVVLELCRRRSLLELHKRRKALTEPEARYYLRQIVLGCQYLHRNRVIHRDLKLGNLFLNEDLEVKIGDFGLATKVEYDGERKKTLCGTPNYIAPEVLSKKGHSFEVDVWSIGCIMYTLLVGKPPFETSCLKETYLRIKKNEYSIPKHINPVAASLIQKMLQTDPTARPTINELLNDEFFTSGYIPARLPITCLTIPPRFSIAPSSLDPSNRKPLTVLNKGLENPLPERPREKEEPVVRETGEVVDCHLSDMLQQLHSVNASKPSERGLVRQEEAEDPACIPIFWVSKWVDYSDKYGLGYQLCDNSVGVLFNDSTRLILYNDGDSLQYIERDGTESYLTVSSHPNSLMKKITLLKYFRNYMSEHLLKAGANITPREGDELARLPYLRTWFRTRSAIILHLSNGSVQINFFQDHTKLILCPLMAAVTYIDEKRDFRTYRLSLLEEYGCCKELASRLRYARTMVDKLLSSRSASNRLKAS
The assay can be described thus: Biochemical Characterization Assay: HTRF kinase assay, GST-PLK1 phosphorylation of GST-p53. As to conditions: GST-PLK1, GST-p53 substrate. The gist of the method:
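HTRF read-out of p53 phosphorylation: after EDTA stop, anti-phospho-p53 antibody bound 30 min at 37 °C in HEPES pH 7 buffer, with Eu-anti-rabbit/APC-anti-GST detection. Kinase step used full-length Sf9-expressed GST-PLK1 (3 ug/mL) and E. coli GST-p53 substrate, 35 min at 37 °C.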
(Time-resolved FRET reads energy transfer from a long-lived donor to a nearby acceptor.)
For the molecule `CCN1CCC(NC(=O)c2ccc(Nc3ncc4c(n3)N(C3CCCC3)CC(F)(F)C(=O)N4C)c(C)c2)CC1` [Example I-186, 4-(9-cyclopentyl-7,7-difluoro-5-methyl-6-oxo-6,7,8,9-tetrahydro-5H-pyrimido[4,5-b][1,4]diazepin-2-ylamino)-N-(1-ethyl-piperidin-4-yl)-3-methyl-benzamide], the IC50 lay within 1 to 50 nM.

Molecule `Cc1cc(C(=O)NCCCN(C)C)ccc1Nc1ncc2c(n1)N(C1CCCC1)CC(F)(F)C(=O)N2C` [Example I-189, 4-(9-cyclopentyl-7,7-difluoro-5-methyl-6-oxo-6,7,8,9-tetrahydro-5H-pyrimido[4,5-b][1,4]diazepin-2-ylamino)-N-(3-dimethylamino-propyl)-3-methyl-benzamide] gave an IC50 of 1 to 50 nM.

As for `Cc1cc(C(N)=O)ccc1Nc1ncc2c(n1)N(C1CCCC1)CC(F)(F)C(=O)N2C` [Example I-193, 4-(9-cyclopentyl-7,7-difluoro-5-methyl-6-oxo-6,7,8,9-tetrahydro-5H-pyrimido[4,5-b][1,4]diazepin-2-ylamino)-3-methyl-benzamide], the IC50 lay within 1 to 50 nM.

Molecule `COc1cc(C(=O)NC2CCOCC2)ccc1Nc1ncc2c(n1)N(C1CCCCC1)CC(F)(F)C(=O)N2C` [Example I-252, 4-(9-cyclohexyl-7,7-difluoro-5-methyl-6-oxo-6,7,8,9-tetrahydro-5H-pyrimido[4,5-b][1,4]diazepin-2-ylamino)-3-methoxy-N-(tetrahydro-pyran-4-yl)-benzamide] showed an IC50 of 1 to 50 nM.

`COc1cc(C(=O)NC2CCN(S(C)(=O)=O)CC2)ccc1Nc1ncc2c(n1)N(C1CCCCC1)CC(F)(F)C(=O)N2C` [Example I-268, 4-(9-cyclohexyl-7,7-difluoro-5-methyl-6-oxo-6,7,8,9-tetrahydro-5H-pyrimido[4,5-b][1,4]diazepin-2-ylamino)-N-(1-methanesulfonyl-piperidin-4-yl)-3-methoxy-benzamide] returned an IC50 of 51 to 500 nM.

As to `Cc1cc(C(=O)NC2CCN(C)CC2)ccc1Nc1ncc2c(n1)N(C1CCCC1)CC(F)(F)C(=O)N2C` [Example I-185, 4-(9-cyclopentyl-7,7-difluoro-5-methyl-6-oxo-6,7,8,9-tetrahydro-5H-pyrimido[4,5-b][1,4]diazepin-2-ylamino)-3-methyl-N-(1-methyl-piperidin-4-yl)-benzamide], the IC50 was 1 to 50 nM.

Regarding `CNC(=O)c1cc(OC)c(Nc2ncc3c(n2)N(C2CCCC2)CC(F)(F)C(=O)N3C)cc1F` [Example I-171, 4-(9-cyclopentyl-7,7-difluoro-5-methyl-6-oxo-6,7,8,9-tetrahydro-5H-pyrimido[4,5-b][1,4]diazepin-2-ylamino)-2-fluoro-5-methoxy-N-methyl-benzamide], the IC50 lay within 1 to 50 nM.

Still in this assay, the particulars now being: GST-PLK1, GST-p53 substrate, ATP.
`COc1cc(C(=O)N[C@H]2CCNC(=O)C2)ccc1Nc1ncc2c(n1)N(C1CCCC1)CC(F)(F)C(=O)N2C` [Example I-90, S-4-(9-cyclopentyl-7,7-difluoro-5-methyl-6-oxo-6,7,8,9-tetrahydro-5H-pyrimido[4,5-b][1,4]diazepin-2-ylamino)-3-methoxy-N-(2-oxo-piperidin-4-yl)-benzamide] came in with an IC50 of 1 to 50 nM.

The molecule `COc1cc(C(=O)N[C@@H]2CCN(C(=O)OC(C)(C)C)C2)ccc1Nc1ncc2c(n1)N(C1CCCC1)CC(F)(F)C(=O)N2C` [Example I-81, R-3-[4-(9-cyclopentyl-7,7-difluoro-5-methyl-6-oxo-6,7,8,9-tetrahydro-5H-pyrimido[4,5-b][1,4]diazepin-2-ylamino)-3-methoxy-benzoylamino]-pyrrolidine-1-carboxylic acid tert-butyl ester] yielded an IC50 of 51 to 500 nM.

Molecule `COc1cc(C(=O)NCCCO)ccc1Nc1ncc2c(n1)N(C1CCCC1)CC(F)(F)C(=O)N2C` [Example I-41, 4-(9-cyclopentyl-7,7-difluoro-5-methyl-6-oxo-6,7,8,9-tetrahydro-5H-pyrimido[4,5-b][1,4]diazepin-2-ylamino)-N-(3-hydroxy-propyl)-3-methoxy-benzamide] displayed an IC50 of 1 to 50 nM.

`COc1cc(C(N)=O)ccc1Nc1ncc2c(n1)N(C1CCCC1)CC(F)(F)C(=O)N2C` [Example I-23, 4-(9-cyclopentyl-7,7-difluoro-5-methyl-6-oxo-6,7,8,9-tetrahydro-5H-pyrimido[4,5-b][1,4]diazepin-2-ylamino)-3-methoxy-benzamide] gave an IC50 of 1 to 50 nM.

Turning to `COc1cc(C(=O)NCCCN(C)C)ccc1Nc1ncc2c(n1)N(C1CCCC1)CC(F)(F)C(=O)N2C` [Example I-78, 4-(9-cyclopentyl-7,7-difluoro-5-methyl-6-oxo-6,7,8,9-tetrahydro-5H-pyrimido[4,5-b][1,4]diazepin-2-ylamino)-N-(3-dimethylamino-propyl)-3-methoxy-benzamide], the IC50 was in the range of 1 to 50 nM.

As for `COc1cc(C(=O)NCC2CCN(C(=O)OC(C)(C)C)C2)ccc1Nc1ncc2c(n1)N(C1CCCC1)CC(F)(F)C(=O)N2C` (stereo not drawn) [Example I-92, 3-{[4-(9-cyclopentyl-7,7-difluoro-5-methyl-6-oxo-6,7,8,9-tetrahydro-5H-pyrimido[4,5-b][1,4]diazepin-2-ylamino)-3-methoxy-benzoylamino]-methyl}-pyrrolidine-1-carboxylic acid tert-butyl ester], the IC50 fell in the range of 51 to 500 nM.

`COc1cc(C(=O)NCCN2CCN(C)CC2)ccc1Nc1ncc2c(n1)N(C1CCCC1)CC(F)(F)C(=O)N2C` [Example I-47, 4-(9-cyclopentyl-7,7-difluoro-5-methyl-6-oxo-6,7,8,9-tetrahydro-5H-pyrimido[4,5-b][1,4]diazepin-2-ylamino)-3-methoxy-N-[2-(4-methyl-piperazin-1-yl)-ethyl]-benzamide] came in with an IC50 of 1 to 50 nM.

Regarding `COc1cc(C(=O)N2CCN(C)CC2)ccc1Nc1ncc2c(n1)N(C1CCCC1)CC(F)(F)C(=O)N2C` [Example I-128, 9-cyclopentyl-7,7-difluoro-2-[2-methoxy-4-(4-methyl-piperazine-1-carbonyl)-phenylamino]-5-methyl-5,7,8,9-tetrahydro-pyrimido[4,5-b][1,4]diazepin-6-one], the IC50 lay in the range of 1 to 50 nM.

Take `COc1cc(C(=O)N[C@@H]2CCN(Cc3ccccc3)C2)ccc1Nc1ncc2c(n1)N(C1CCCC1)CC(F)(F)C(=O)N2C` [Example I-101, N—((R)-1-benzyl-pyrrolidin-3-yl)-4-(9-cyclopentyl-7,7-difluoro-5-methyl-6-oxo-6,7,8,9-tetrahydro-5H-pyrimido[4,5-b][1,4]diazepin-2-ylamino)-3-methoxy-benzamide]: the IC50 is 1 to 50 nM.

Take `COc1cc(C(=O)NC2CCN(C3CC3)CC2)ccc1Nc1ncc2c(n1)N(C1CCCC1)CC(F)(F)C(=O)N2C` [Example I-66, 4-(9-cyclopentyl-7,7-difluoro-5-methyl-6-oxo-6,7,8,9-tetrahydro-5H-pyrimido[4,5-b][1,4]diazepin-2-ylamino)-N-(1-cyclopropyl-piperidin-4-yl)-3-methoxy-benzamide]: the IC50 fell in the range of 1 to 50 nM.

Take `CN(C)CCCNC(=O)c1ccc(Nc2ncc3c(n2)N(C2CCC2)CC(F)(F)C(=O)N3C)cc1` [Example I-19, 4-(9-cyclobutyl-7,7-difluoro-5-methyl-6-oxo-6,7,8,9-tetrahydro-5H-pyrimido[4,5-b][1,4]diazepin-2-ylamino)-N-(3-dimethylamino-propyl)-benzamide]: the IC50 was in the range of 1 to 50 nM.

The molecule `COc1cc(C(=O)NCC2CN(C(=O)OC(C)(C)C)C2)ccc1Nc1ncc2c(n1)N(C1CCCC1)CC(F)(F)C(=O)N2C` [Example I-91, 3-{[4-(9-cyclopentyl-7,7-difluoro-5-methyl-6-oxo-6,7,8,9-tetrahydro-5H-pyrimido[4,5-b][1,4]diazepin-2-ylamino)-3-methoxy-benzoylamino]-methyl}-azetidine-1-carboxylic acid tert-butyl ester] showed an IC50 of 1 to 50 nM.

In turn, `COc1cc(C(=O)N[C@@H]2CN3CCC2CC3)ccc1Nc1ncc2c(n1)N(C1CCCC1)CC(F)(F)C(=O)N2C` [Example I-107, N—(S)-1-aza-bicyclo[2.2.2]oct-3-yl-4-(9-cyclopentyl-7,7-difluoro-5-methyl-6-oxo-6,7,8,9-tetrahydro-5H-pyrimido[4,5-b][1,4]diazepin-2-ylamino)-3-methoxy-benzamide] came in with an IC50 of 1 to 50 nM.

As for `COc1cc(C(=O)NCCCN2CCCCC2)ccc1Nc1ncc2c(n1)N(C1CCCC1)CC(F)(F)C(=O)N2C` [Example I-84, 4-(9-cyclopentyl-7,7-difluoro-5-methyl-6-oxo-6,7,8,9-tetrahydro-5H-pyrimido[4,5-b][1,4]diazepin-2-ylamino)-3-methoxy-N-(3-piperidin-1-yl-propyl)-benzamide], the IC50 was 1 to 50 nM.

Regarding `COc1cc(C(=O)N[C@H]2CC[C@H](O)CC2)ccc1Nc1ncc2c(n1)N(C1CCCC1)CC(F)(F)C(=O)N2C` [Example I-69, trans-4-(9-cyclopentyl-7,7-difluoro-5-methyl-6-oxo-6,7,8,9-tetrahydro-5H-pyrimido[4,5-b][1,4]diazepin-2-ylamino)-N-(4-hydroxy-cyclohexyl)-3-methoxy-benzamide], the IC50 lay in the range of 1 to 50 nM.

The molecule `COc1cc(C(=O)NC2CC(C)(C)N(C)C(C)(C)C2)ccc1Nc1ncc2c(n1)N(C1CCCC1)CC(F)(F)C(=O)N2C` [Example I-85, 4-(9-cyclopentyl-7,7-difluoro-5-methyl-6-oxo-6,7,8,9-tetrahydro-5H-pyrimido[4,5-b][1,4]diazepin-2-ylamino)-3-methoxy-N-(1,2,2,6,6-pentamethyl-piperidin-4-yl)-benzamide] yielded an IC50 of 1 to 50 nM.

`CN1C(=O)C(F)(F)CN(C2CCC2)c2nc(Nc3ccc(C(N)=O)cc3)ncc21` [Example I-12, 4-(9-cyclobutyl-7,7-difluoro-5-methyl-6-oxo-6,7,8,9-tetrahydro-5H-pyrimido[4,5-b][1,4]diazepin-2-ylamino)-benzamide] registered an IC50 of 51 to 500 nM.

Values taken from patent publication US8003785B2 (Takeda Pharmaceutical Company Limited, priority 2008, dated 2011).
